This is an account of results in ChEMBL document CHEMBL1240419, “Synthesis and antibacterial activity of 3-O-carbamoyl derivatives of 6,11-di-O-methylerythromycin A: a novel class of acylides” (2010).

Holding throughout (format): functional
The test system of assay [1] is Staphylococcus aureus. Description: Antibacterial activity against erythromycin-susceptible Staphylococcus aureus ATCC 25923 by broth microdilution method. For orientation: Broth dilution looks for growth in wells or tubes with falling amounts of substance.
In assay [2] the test system is Staphylococcus aureus. In words: Antibacterial activity against erythromycin-resistant, methicillin-susceptible Staphylococcus aureus A265 by broth microdilution method.
For assay [3], the system named is Staphylococcus aureus. Description: Antibacterial activity against erythromycin, methicillin-resistant Staphylococcus aureus A333 by broth microdilution method.
For assay [4], the system named is Streptococcus pneumoniae. Description: Antibacterial activity against erythromycin-susceptible Streptococcus pneumoniae ATCC 49619 by broth microdilution method.
In assay [5] the test system is Streptococcus pneumoniae. In words: Antibacterial activity against erythromycin-resistant Streptococcus pneumoniae 3469 by broth microdilution method.
In assay [6] the test system is Haemophilus influenzae. In words: Antibacterial activity against ampicillin-susceptible Haemophilus influenzae ATCC 49247 by broth microdilution method.
The test system of assay [7] is Haemophilus influenzae. In words: Antibacterial activity against ampicillin-resistant Haemophilus influenzae 3300 by broth microdilution method.

≈ marks a conversion by molar mass, not a printed value.

Regarding `CC[C@H]1OC(=O)[C@H](C)[C@@H](OC(=O)NCCCO)[C@H](C)[C@@H](O[C@@H]2O[C@H](C)C[C@H](N(C)C)[C@H]2O)[C@](C)(OC)C[C@@H](C)C(=O)[C@@H](C)[C@@H](OC)[C@]1(C)O`, the MIC is 4 µg/mL (≈ 5.67 µM) in the assay with Staphylococcus aureus [1]; 16 µg/mL (≈ 22.7 µM) with Staphylococcus aureus [2]; above 64 µg/mL against Staphylococcus aureus [3]; 1 µg/mL (≈ 1.42 µM) in the assay on Streptococcus pneumoniae [4]; 8 µg/mL (≈ 11.3 µM) against Streptococcus pneumoniae [5]; 32 µg/mL (≈ 45.4 µM) with Haemophilus influenzae [6]. For the same compound, the MIC against Haemophilus influenzae [7] turned out to be 32 µg/mL (≈ 45.4 µM).
Turning to `CC[C@H]1OC(=O)[C@H](C)[C@@H](OC(=O)NCc2ccco2)[C@H](C)[C@@H](O[C@@H]2O[C@H](C)C[C@H](N(C)C)[C@H]2O)[C@](C)(OC)C[C@@H](C)C(=O)[C@@H](C)[C@@H](OC)[C@]1(C)O`, the MIC against Staphylococcus aureus [1] was 2 µg/mL (≈ 2.75 µM); against Staphylococcus aureus [2], 1 µg/mL (≈ 1.38 µM); in the assay on Staphylococcus aureus [3] it was above 64 µg/mL; in the assay on Streptococcus pneumoniae [4], 0.5 µg/mL (≈ 0.688 µM); against Streptococcus pneumoniae [5], 16 µg/mL (≈ 22 µM); in the assay with Haemophilus influenzae [6], 2 µg/mL (≈ 2.75 µM). In addition, in the assay with Haemophilus influenzae [7], the MIC was determined as 2 µg/mL (≈ 2.75 µM).
With `CC[C@H]1OC(=O)[C@H](C)[C@@H](OC(=O)NCCc2ccccc2Br)[C@H](C)[C@@H](O[C@@H]2O[C@H](C)C[C@H](N(C)C)[C@H]2O)[C@](C)(OC)C[C@@H](C)C(=O)[C@@H](C)[C@@H](OC)[C@]1(C)O`, the MIC in the assay on Staphylococcus aureus [1] stood at 4 µg/mL (≈ 4.82 µM); in the assay with Staphylococcus aureus [2] it was 4 µg/mL (≈ 4.82 µM); in the assay on Staphylococcus aureus [3], 64 µg/mL (≈ 77.1 µM); against Streptococcus pneumoniae [4] it was 0.125 µg/mL (≈ 0.151 µM); in the assay on Streptococcus pneumoniae [5], 8 µg/mL (≈ 9.64 µM); in the assay on Haemophilus influenzae [6], 8 µg/mL (≈ 9.64 µM). This compound also displayed an MIC with Haemophilus influenzae [7] of 4 µg/mL (≈ 4.82 µM).
Turning to `CC[C@H]1OC(=O)[C@H](C)[C@@H](O[C@H]2C[C@@](C)(OC)[C@@H](O)[C@H](C)O2)[C@H](C)[C@@H](O[C@@H]2O[C@H](C)C[C@H](N(C)C)[C@H]2O)[C@](C)(O)C[C@@H](C)CN(C)[C@H](C)[C@@H](O)[C@]1(C)O` [AZITHROMYCIN], the MIC in the assay on Staphylococcus aureus [1] is 0.5 µg/mL (≈ 0.668 µM); against Staphylococcus aureus [2] it was 8 µg/mL (≈ 10.7 µM); against Staphylococcus aureus [3], above 64 µg/mL; against Streptococcus pneumoniae [4], 0.5 µg/mL (≈ 0.668 µM); in the assay on Streptococcus pneumoniae [5], 4 µg/mL (≈ 5.34 µM); against Haemophilus influenzae [6] it was 4 µg/mL (≈ 5.34 µM). Besides, in the assay on Haemophilus influenzae [7], the MIC amounted to 4 µg/mL (≈ 5.34 µM).
As to `CC[C@H]1OC(=O)[C@H](C)[C@@H](OC(=O)NC2CCCCC2)[C@H](C)[C@@H](O[C@@H]2O[C@H](C)C[C@H](N(C)C)[C@H]2O)[C@](C)(OC)C[C@@H](C)C(=O)[C@@H](C)[C@@H](OC)[C@]1(C)O`, the MIC is 8 µg/mL (≈ 11 µM) against Staphylococcus aureus [1]; 2 µg/mL (≈ 2.74 µM) against Staphylococcus aureus [2]; above 64 µg/mL in the assay on Staphylococcus aureus [3]; 0.125 µg/mL (≈ 0.171 µM) against Streptococcus pneumoniae [4]; 0.125 µg/mL (≈ 0.171 µM) in the assay on Streptococcus pneumoniae [5]; 4 µg/mL (≈ 5.49 µM) in the assay on Haemophilus influenzae [6]. Also, the MIC in the assay on Haemophilus influenzae [7] was determined as 4 µg/mL (≈ 5.49 µM).
Regarding `CC[C@H]1OC(=O)[C@H](C)[C@@H](OC(=O)NCCc2ccccc2Cl)[C@H](C)[C@@H](O[C@@H]2O[C@H](C)C[C@H](N(C)C)[C@H]2O)[C@](C)(OC)C[C@@H](C)C(=O)[C@@H](C)[C@@H](OC)[C@]1(C)O`, the MIC was 4 µg/mL (≈ 5.09 µM) with Staphylococcus aureus [1]; 1 µg/mL (≈ 1.27 µM) with Staphylococcus aureus [2]; above 64 µg/mL in the assay with Staphylococcus aureus [3]; 0.125 µg/mL (≈ 0.159 µM) in the assay on Streptococcus pneumoniae [4]; 0.125 µg/mL (≈ 0.159 µM) with Streptococcus pneumoniae [5]; 8 µg/mL (≈ 10.2 µM) with Haemophilus influenzae [6]. This compound also came in with an MIC against Haemophilus influenzae [7] of 16 µg/mL (≈ 20.4 µM).
As for `CC[C@H]1OC(=O)[C@H](C)[C@@H](OC(=O)NCc2ccccc2)[C@H](C)[C@@H](O[C@@H]2O[C@H](C)C[C@H](N(C)C)[C@H]2O)[C@](C)(OC)C[C@@H](C)C(=O)[C@@H](C)[C@@H](OC)[C@]1(C)O`, the MIC was 2 µg/mL (≈ 2.71 µM) against Staphylococcus aureus [1]; 0.125 µg/mL (≈ 0.17 µM) with Staphylococcus aureus [2]; above 64 µg/mL in the assay on Staphylococcus aureus [3]; 0.125 µg/mL (≈ 0.17 µM) with Streptococcus pneumoniae [4]; 0.125 µg/mL (≈ 0.17 µM) against Streptococcus pneumoniae [5]; 8 µg/mL (≈ 10.9 µM) with Haemophilus influenzae [6]. This compound also registered an MIC against Haemophilus influenzae [7] of 4 µg/mL (≈ 5.43 µM).
`CCCNC(=O)O[C@H]1[C@H](C)[C@@H](O[C@@H]2O[C@H](C)C[C@H](N(C)C)[C@H]2O)[C@](C)(OC)C[C@@H](C)C(=O)[C@@H](C)[C@@H](OC)[C@](C)(O)[C@@H](CC)OC(=O)[C@@H]1C`: the MIC was 2 µg/mL (≈ 2.9 µM) in the assay with Staphylococcus aureus [1]; 1 µg/mL (≈ 1.45 µM) with Staphylococcus aureus [2]; above 64 µg/mL in the assay on Staphylococcus aureus [3]; 0.125 µg/mL (≈ 0.181 µM) in the assay with Streptococcus pneumoniae [4]; 0.125 µg/mL (≈ 0.181 µM) against Streptococcus pneumoniae [5]; above 64 µg/mL against Haemophilus influenzae [6]. Further, the MIC in the assay on Haemophilus influenzae [7] was determined as 64 µg/mL (≈ 92.9 µM).
As for `CCCCOCCCNC(=O)O[C@H]1[C@H](C)[C@@H](O[C@@H]2O[C@H](C)C[C@H](N(C)C)[C@H]2O)[C@](C)(OC)C[C@@H](C)C(=O)[C@@H](C)[C@@H](OC)[C@](C)(O)[C@@H](CC)OC(=O)[C@@H]1C`, the MIC was 4 µg/mL (≈ 5.26 µM) in the assay with Staphylococcus aureus [1]; 16 µg/mL (≈ 21 µM) against Staphylococcus aureus [2]; above 64 µg/mL in the assay on Staphylococcus aureus [3]; 2 µg/mL (≈ 2.63 µM) against Streptococcus pneumoniae [4]; above 64 µg/mL with Streptococcus pneumoniae [5]; 32 µg/mL (≈ 42 µM) in the assay on Haemophilus influenzae [6]. Further, the MIC in the assay on Haemophilus influenzae [7] was determined as 64 µg/mL (≈ 84.1 µM).
Regarding `CC[C@H]1OC(=O)[C@H](C)[C@@H](OC(=O)NCCc2ccc(OC)cc2)[C@H](C)[C@@H](O[C@@H]2O[C@H](C)C[C@H](N(C)C)[C@H]2O)[C@](C)(OC)C[C@@H](C)C(=O)[C@@H](C)[C@@H](OC)[C@]1(C)O`, the MIC was 4 µg/mL (≈ 5.12 µM) in the assay on Staphylococcus aureus [1]; 8 µg/mL (≈ 10.2 µM) in the assay on Staphylococcus aureus [2]; above 64 µg/mL against Staphylococcus aureus [3]; 0.125 µg/mL (≈ 0.16 µM) against Streptococcus pneumoniae [4]; 0.125 µg/mL (≈ 0.16 µM) against Streptococcus pneumoniae [5]; 16 µg/mL (≈ 20.5 µM) in the assay on Haemophilus influenzae [6]. Further, in the assay on Haemophilus influenzae [7], the MIC was determined as 16 µg/mL (≈ 20.5 µM).
